Laboratory results taken from ChEMBL document CHEMBL1201862, “PubChem BioAssay data set” (2004).
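Grown in 96-well plates, cells were treated for 48 hours with each compound at five concentrations. Insufficient inhibition: endpoint recorded as highest concentration tested. At the GI50, growth is halved.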 Active and inactive are the calls of the source. Rule as the data show it: active = GI50 up to about 1.1 µM and inactive = higher.

How the values were obtained:
Assay in all cases: DTP human tumour cell line panel, 48 h
786-0 = tested on: 786-0
A498 = tested on: A498
A549 = tested on: A549
ACHN = tested on: ACHN
CAKI-1 = tested on: CAKI-1
CCRF-CEM = tested on: CCRF-CEM
DLD-1 = tested on: DLD-1
DMS-114 = tested on: DMS-114
DMS-273 = tested on: DMS-273
EKVX = tested on: EKVX
HCC 2998 = tested on: HCC 2998
HCT-116 = tested on: HCT-116
HCT-15 = tested on: HCT-15
HL-60 = tested on: HL-60
HOP-18 = tested on: HOP-18
HOP-62 = tested on: HOP-62
HOP-92 = tested on: HOP-92
HT-29 = tested on: HT-29
IGROV-1 = tested on: IGROV-1
K562 = tested on: K562
KM-20L2 = tested on: KM-20L2
KM12 = tested on: KM12
LOX IMVI = tested on: LOX IMVI
LXFL 529 = tested on: LXFL 529
M14 = tested on: M14
M19-MEL = tested on: M19-MEL
MOLT-4 = tested on: MOLT-4
Malme-3M = tested on: Malme-3M
NCI-H226 = tested on: NCI-H226
NCI-H23 = tested on: NCI-H23
NCI-H460 = tested on: NCI-H460
NCI-H522 = tested on: NCI-H522
OVCAR-3 = tested on: OVCAR-3
OVCAR-4 = tested on: OVCAR-4
OVCAR-5 = tested on: OVCAR-5
OVCAR-8 = tested on: OVCAR-8
RPMI-8226 = tested on: RPMI-8226
RXF 631 = tested on: RXF 631
SF-268 = tested on: SF-268
SF-295 = tested on: SF-295
SF-539 = tested on: SF-539
SK-MEL-28 = tested on: SK-MEL-28
SK-MEL-2 = tested on: SK-MEL-2
SK-MEL-5 = tested on: SK-MEL-5
SK-OV-3 = tested on: SK-OV-3
SNB-19 = tested on: SNB-19
SNB-75 = tested on: SNB-75
SNB-78 = tested on: SNB-78
SW-620 = tested on: SW-620
TK-10 = tested on: TK-10
U-251 = tested on: U-251
UACC-257 = tested on: UACC-257
UACC-62 = tested on: UACC-62
UO-31 = tested on: UO-31
BT-549 = tested on: BT-549
COLO 205 = tested on: COLO 205
DU-145 = tested on: DU-145
Hs-578T = tested on: Hs-578T
MCF7 = tested on: MCF7
MDA-MB-231 = tested on: MDA-MB-231
MDA-MB-435 = tested on: MDA-MB-435
MDA-N = tested on: MDA-N
NCI/ADR-RES = tested on: NCI/ADR-RES
PC-3 = tested on: PC-3
RXF 393 = tested on: RXF 393
SN12C = tested on: SN12C
SR = tested on: SR
T47D = tested on: T47D
XF498 = tested on: XF498

Measured: GI50

O=c1[nH]c(=O)n([C@@H]2C[C@H](CO)[C@H](O)C2)cc1/C=C/Br
> 100 µM: HCT-15
inactive: 786-0 > 100 µM | A498 > 100 µM | A549 > 100 µM | ACHN > 100 µM | CAKI-1 > 100 µM | CCRF-CEM > 100 µM | DLD-1 > 100 µM | DMS-114 > 100 µM | DMS-273 > 100 µM | EKVX > 100 µM | HCC 2998 > 100 µM | HCT-116 > 100 µM | HL-60 > 100 µM | HOP-18 > 100 µM | HOP-62 > 100 µM | HOP-92 > 100 µM | HT-29 > 100 µM | IGROV-1 > 100 µM | K562 > 100 µM | KM-20L2 > 100 µM | KM12 > 100 µM | LOX IMVI > 100 µM | LXFL 529 > 100 µM | M14 > 100 µM | M19-MEL > 100 µM | MOLT-4 > 100 µM | Malme-3M > 100 µM | NCI-H226 > 100 µM | NCI-H23 > 100 µM | NCI-H460 > 100 µM | NCI-H522 > 100 µM | OVCAR-3 > 100 µM | OVCAR-4 > 100 µM | OVCAR-5 > 100 µM | OVCAR-8 > 100 µM | RPMI-8226 > 100 µM | RXF 631 > 100 µM | SF-268 > 100 µM | SF-295 > 100 µM | SF-539 > 100 µM | SK-MEL-28 > 100 µM | SK-MEL-2 > 100 µM | SK-MEL-5 > 100 µM | SK-OV-3 > 100 µM | SNB-19 > 100 µM | SNB-75 > 100 µM | SNB-78 > 100 µM | SW-620 > 100 µM | TK-10 > 100 µM | U-251 > 100 µM | UACC-257 > 100 µM | UACC-62 > 100 µM | UO-31 > 100 µM

O=C(/C=C/c1ccc(OCC(=O)N2CCN(c3ccccc3)CC2)cc1)c1ccc(Cl)cc1
> 100 µM: HCT-15
inactive: 786-0 22 µM | A498 23.4 µM | A549 38.7 µM | ACHN 22.4 µM | BT-549 43.4 µM | CAKI-1 78.5 µM | CCRF-CEM > 100 µM | COLO 205 > 100 µM | DLD-1 > 100 µM | DMS-114 > 65.3 µM | DMS-273 55 µM | DU-145 51.2 µM | EKVX > 60.7 µM | HCC 2998 > 100 µM | HCT-116 54.5 µM | HL-60 98.2 µM | HOP-18 > 100 µM | HOP-62 21.7 µM | HOP-92 13.3 µM | HT-29 > 100 µM | Hs-578T 21.7 µM | IGROV-1 38.6 µM | K562 > 100 µM | KM-20L2 > 100 µM | KM12 > 100 µM | LOX IMVI > 100 µM | LXFL 529 > 92 µM | M14 84.7 µM | M19-MEL > 100 µM | MCF7 > 100 µM | MDA-MB-231 25.5 µM | MDA-MB-435 > 100 µM | MDA-N > 100 µM | MOLT-4 > 100 µM | Malme-3M 57.3 µM | NCI-H226 50.8 µM | NCI-H23 50.4 µM | NCI-H460 > 94.2 µM | NCI-H522 49.3 µM | NCI/ADR-RES 59.2 µM | OVCAR-3 > 92 µM | OVCAR-4 32.6 µM | OVCAR-5 > 100 µM | OVCAR-8 45.9 µM | PC-3 > 91.8 µM | RPMI-8226 > 100 µM | RXF 393 21.9 µM | RXF 631 34.8 µM | SF-268 26.2 µM | SF-295 18.6 µM | SF-539 19 µM | SK-MEL-28 > 100 µM | SK-MEL-2 36.5 µM | SK-MEL-5 54.2 µM | SK-OV-3 27.5 µM | SN12C 89.5 µM | SNB-19 18.6 µM | SNB-75 12 µM | SNB-78 18.6 µM | SR > 100 µM | SW-620 > 100 µM | T47D 52.7 µM | TK-10 31.6 µM | U-251 15.7 µM | UACC-257 > 72.4 µM | UACC-62 61.8 µM | UO-31 > 71 µM

O=C(O)CNc1c2ccccc2nc2ccccc12
inactive: 786-0 > 100 µM | A549 > 100 µM | ACHN > 100 µM | CAKI-1 > 100 µM | CCRF-CEM > 100 µM | COLO 205 > 100 µM | DLD-1 > 100 µM | DMS-114 60.4 µM | DMS-273 > 100 µM | EKVX > 100 µM | HCC 2998 > 100 µM | HCT-116 78.3 µM | HL-60 48.2 µM | HOP-92 > 100 µM | HT-29 > 100 µM | IGROV-1 > 100 µM | K562 > 100 µM | KM-20L2 > 100 µM | KM12 > 100 µM | LOX IMVI > 100 µM | LXFL 529 > 100 µM | M14 > 100 µM | MOLT-4 > 100 µM | Malme-3M > 100 µM | NCI-H226 > 100 µM | NCI-H23 > 100 µM | NCI-H460 > 100 µM | NCI-H522 49.8 µM | OVCAR-3 80.4 µM | OVCAR-4 22.1 µM | OVCAR-5 > 100 µM | OVCAR-8 > 100 µM | RPMI-8226 56.8 µM | RXF 393 > 100 µM | RXF 631 > 100 µM | SF-268 > 100 µM | SF-295 > 100 µM | SF-539 > 100 µM | SK-MEL-28 > 100 µM | SK-MEL-2 > 100 µM | SK-MEL-5 > 100 µM | SK-OV-3 > 100 µM | SN12C > 100 µM | SNB-19 > 100 µM | SNB-75 > 100 µM | SR > 100 µM | SW-620 > 100 µM | TK-10 > 100 µM | U-251 > 100 µM | UACC-257 > 100 µM | UACC-62 > 100 µM | UO-31 50.6 µM | XF498 > 100 µM
> 100 µM: HCT-15
